Data: paper PMC10630888, “Nuclear ERK1/2 signaling potentiation enhances neuroprotection and cognition via Importinα1/KPNA2” (EMBO Molecular Medicine, 2023)
Values joined by “and” are separate entries in the source; they are usually repeats but may differ in a detail not shown here. Equal entries are not always repeated.

Experiments:
[1] = test system: NOR memory; test: Novel object recognition test (NOR); format: in vivo, mouse; conditions: mice, single systemic administration, 20 mg/kg i.p.
Description: NOR was performed as previously described (d'Isa et al, [2014]). Briefly, the test was performed in an open square box placed in a quiet room with dim light. The objects used were parallelepipeds in metal and glass vials filled with water. The protocol required 3 days and it was performed as follows.
Day 1: mice were individually placed in the empty arena for 5 min to familiarize with it and to measure their anxiety (thigmotaxis trial). The percentage of thigmotaxis is calculated as the time spent in the peripheral zone out of the total time spent in the arena (300 s.). Animals showing a thigmotaxis > 90% are discarded from the sample because considered biased for anxiety. Day 2: mice were placed into the arena for 10 min, where they were allowed to explore two identical objects (training trial). The amount of time spent by mice exploring each object was scored. […] Times of exploration for the familiar object and for the novel object were recorded. The discrimination index (D.I.), defined as the difference between the exploration time for the novel object and the one for the familiar object, divided by total exploration time, was calculated. The sessions were recorded with the video tracking software SMART (Panlab, Barcelona, Spain). […]

[2] = test system: cleaved caspase-3; test: Cleaved caspase-3 in striatum of zQ175 females after RB5; format: in vivo, mouse; conditions: RB5 for 9 days
Description: Immunofluorescence was performed as described in Papale et al ([2016]). Briefly, 1 h after blocking in 5% normal goat serum, slices were incubated overnight at 4°C with the following primary antibodies: anti‐phospho (Ser10)‐acetylated (Lys14) histone H3 (1:1,000, Millipore), anti‐phospho‐S6 ribosomal protein (Ser235/236) (1:200, Cell Signaling Technology) anti‐phospho‐S6 ribosomal protein (Ser240/244) (1:200, Cell Signaling), cleaved caspase‐3 (1:200, Cell Signaling Technology), anti‐mutant Huntingtin (1:100, Developmental Studies Hybridoma Bank, University of Iowa, #MW8), and NeuN (1:1,000, Millipore). […]
In ex‐vivo and in‐vivo immunofluorescence experiments, the number of p‐S6 or p‐AcH3 immunoreactive neurons among NeuN‐positive neurons was counted in 2–3 consecutive striatal sections per mouse in four fields per section. Caspase 3‐positive cells were quantified among NeuN‐positive neurons in each slide and expressed as percentage (ratio between caspase‐3‐positive cells and total NeuN‐positive neurons) for each field acquired through the slide. The number of cells showing mutant Huntingtin inclusions were expressed as a percentage of mutant Huntingtin‐positive cells among DAPI‐positive cells. […]

[3] = test system: p44 ERK1 and p42 ERK2; test: Western blot of pERK1/2 and total ERK1/2 in HEK293 cells; format: cell-based; conditions: serum-starved HEK 293 cells, 50 μM, 15 min
Description: For Western blot and immunofluorescence analysis, 0.6 × 10^6 HEK293 cells were seeded in 6‐well plates in the presence of DMEM High Glucose GlutaMax (Thermo Fisher Scientific) containing 10% Foetal Bovine Serum (FBS, Thermo Fisher Scientific) and 100 U/ml penicillin/streptomycin (Thermo Fisher Scientific). For Western blot analysis to assess ERK1/2 and phospho‐ERK1/2 levels, cells were serum starved for 24 h and incubated with RB5 50 μM or FBS 20% for 15 min at 37°C. To assess JNK and phospho‐JNK levels, cells were incubated with RB5 50 μM or anisomycin 5 μM for 30 min at 37°C. For immunofluorescence analysis, cells were serum‐starved for 24 h and incubated with 50 μM RB5 or 20% FBS for 15 min at 37°C.
Cells were collected in ice‐cold lysis buffer (20 mM Tris HCl pH 7.5, 150 mM NaCl, 1% Triton, 1 mM EDTA, complete EDTA‐free protease inhibitor cocktail (Roche), 1 mM sodium orthovanadate, 1 mM sodium fluoride, 1 mM b‐glycerophosphate). Protein concentration was determined with the Biorad DC protein assay. Equal amounts of proteins ([…]) were boiled in sample buffer, separated by SDS‐PAGE, and transferred to nitrocellulose membranes (Amersham). […]

[4] = test system: cleaved caspase-3; test: Cleaved caspase-3 in striatum of HdhQ111/+ mice treated with RB5; format: in vivo, mouse; conditions: for cleaved caspase-3 in striatum (Fig 5 panel c): individual animals
Description: Immunofluorescence was performed as described in Papale et al ([2016]). Briefly, 1 h after blocking in 5% normal goat serum, slices were incubated overnight at 4°C with the following primary antibodies: anti‐phospho (Ser10)‐acetylated (Lys14) histone H3 (1:1,000, Millipore), anti‐phospho‐S6 ribosomal protein (Ser235/236) (1:200, Cell Signaling Technology) anti‐phospho‐S6 ribosomal protein (Ser240/244) (1:200, Cell Signaling), cleaved caspase‐3 (1:200, Cell Signaling Technology), anti‐mutant Huntingtin (1:100, Developmental Studies Hybridoma Bank, University of Iowa, #MW8), and NeuN (1:1,000, Millipore). Corresponding secondary antibodies (Alexa Fluor 546 conjugated anti‐mouse (1:200, Thermo Fisher Scientific), Alexa Fluor 488 conjugated anti‐rabbit (1:500, Thermo Fisher Scientific) and Pacific Blue goat anti‐mouse (1:200, Thermo Fisher Scientific) were incubated at room temperature for 1 h. Sections stained for mutant Huntingtin were incubated with DAPI for 20 min. Sections were subsequently mounted with fluorescent mounting medium (DAKO). Single and double‐labeled images ([…]) were obtained at 40× magnification from the striatum using a laser scanning confocal microscope (Leica SP2) equipped with the corresponding lasers and appropriate filter sets to avoid the crosstalk between the fluorochromes.
In ex‐vivo and in‐vivo immunofluorescence experiments, the number of p‐S6 or p‐AcH3 immunoreactive neurons among NeuN‐positive neurons was counted in 2–3 consecutive striatal sections per mouse in four fields per section. Caspase 3‐positive cells were quantified among NeuN‐positive neurons in each slide and expressed as percentage (ratio between caspase‐3‐positive cells and total NeuN‐positive neurons) for each field acquired through the slide. The number of cells showing mutant Huntingtin inclusions were expressed as a percentage of mutant Huntingtin‐positive cells among DAPI‐positive cells.

GRKKRRQRRRPPQGGGGGEPRRTEGVGPGVPGEVEMVKGQPFDV [RB5, six D-amino acids, acetylated N-terminus]
Persistence of NOR memory [1]: over 120 h | Preapoptotic marker caspase-3 in striatum [2]: very significant reduction | p44/p42 protein levels (Western blot) [3]: without affecting p44/p42 protein levels | p44 ERK1 and p42 ERK2 phosphorylation (Western blot) [3]: sustained a strong p44 ERK1 and p42 ERK2 phosphorylation | Striatal neuronal degeneration (cleaved caspase-3) ([4]; 10 month-old HdhQ111/+ mice, 20 mg/kg i.p. for 8 days): attenuated striatal neuronal degeneration | cleaved caspase-3 in striatum (Fig 5 panel c) ([4]; HdhQ111/+ mice): 2.0154 and 1.547 and 0.5041 and 1.332 and 1.4192 | cleaved caspase-3 in striatum (Fig 5 panel c) ([4]; WT mice): 1.055 and 1.796 and 1.192 and 0.7349 and 0.4238
